Assays:
Experiment in all cases: Radiometric kinase panel
Format in all cases: biochemical
[1] = target: T1, RPS6KA3 (Homo sapiens, UniProt P51812)
T1 construct: purchased ProQinase GmbH (Reaction Biology); host or cells: Sf9 insect cells or E. coli (not specified per kinase)
In short: (§1)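 Activity was measured radiometrically from [gamma-33P]-ATP incorporation into substrate. The kinases were recombinant human GST- or His-tagged proteins, full-length or active fragments, expressed in Sf9 or E. coli. Compound in 10% DMSO was added before the enzyme/substrate mix, which started the reaction.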

[2] = target: T2, SRPK2 (Homo sapiens, UniProt P78362)
T2 construct: purchased ProQinase GmbH (Reaction Biology)
In short: as §1

[3] = target: T3, TYRO3 (Homo sapiens, UniProt Q06418)
T3 construct: either as full-length or enzymatically active fragments; purchased ProQinase GmbH (Reaction Biology)
In short: as §1

[4] = target: T4, MTOR (Homo sapiens, UniProt P42345)
T4 construct: purchased ProQinase GmbH (Reaction Biology); host or cells: Sf9 insect cells or E. coli (not specified per kinase)
In short: as §1

[5] = target: T5, MKK7 (Homo sapiens, UniProt O14733)
T5 construct: either as full-length or enzymatically active fragments; purchased ProQinase GmbH (Reaction Biology); host or cells: Sf9 insect cells or E. coli (not specified per kinase)
In short: as §1

[6] = target: T6, S6Kbeta (Homo sapiens, UniProt Q9UBS0)
T6 construct: purchased ProQinase GmbH (Reaction Biology); host or cells: Sf9 insect cells or E. coli (not specified per kinase)
In short: as §1

[7] = target: T7, CAMKK1 (Homo sapiens, UniProt Q8N5S9)
T7 construct: either as full-length or enzymatically active fragments; purchased ProQinase GmbH (Reaction Biology)
In short: as §1

[8] = target: T8, ROCK1 (Homo sapiens, UniProt Q13464)
T8 construct: either as full-length or enzymatically active fragments; purchased ProQinase GmbH (Reaction Biology)
In short: as §1

[9] = target: T9, CHK1 (Homo sapiens, UniProt O14757)
T9 construct: either as full-length or enzymatically active fragments; purchased ProQinase GmbH (Reaction Biology)
T9 sequence (O14757 whole entry, the tested form may be a part): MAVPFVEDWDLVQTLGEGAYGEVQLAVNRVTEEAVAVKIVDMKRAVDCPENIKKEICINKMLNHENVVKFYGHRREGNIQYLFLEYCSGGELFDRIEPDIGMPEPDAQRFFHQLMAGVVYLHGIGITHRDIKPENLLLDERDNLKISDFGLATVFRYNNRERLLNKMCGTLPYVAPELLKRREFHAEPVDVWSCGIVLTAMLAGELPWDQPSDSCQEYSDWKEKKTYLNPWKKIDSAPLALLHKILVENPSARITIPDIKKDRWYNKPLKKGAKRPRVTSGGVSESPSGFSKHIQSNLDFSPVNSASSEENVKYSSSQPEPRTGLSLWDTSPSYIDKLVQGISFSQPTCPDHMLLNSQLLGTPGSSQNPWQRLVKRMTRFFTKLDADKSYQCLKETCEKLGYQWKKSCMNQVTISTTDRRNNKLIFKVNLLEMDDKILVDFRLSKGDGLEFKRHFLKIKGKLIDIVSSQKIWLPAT
In short: as §1

[10] = target: T10, MAP3K10 (Homo sapiens, UniProt Q02779)
T10 construct: either as full-length or enzymatically active fragments; purchased ProQinase GmbH (Reaction Biology)
In short: as §1

[11] = target: T11, EPHB4 (Homo sapiens, UniProt P54760)
T11 construct: either as full-length or enzymatically active fragments; purchased ProQinase GmbH (Reaction Biology)
T11 sequence (P54760 16-987): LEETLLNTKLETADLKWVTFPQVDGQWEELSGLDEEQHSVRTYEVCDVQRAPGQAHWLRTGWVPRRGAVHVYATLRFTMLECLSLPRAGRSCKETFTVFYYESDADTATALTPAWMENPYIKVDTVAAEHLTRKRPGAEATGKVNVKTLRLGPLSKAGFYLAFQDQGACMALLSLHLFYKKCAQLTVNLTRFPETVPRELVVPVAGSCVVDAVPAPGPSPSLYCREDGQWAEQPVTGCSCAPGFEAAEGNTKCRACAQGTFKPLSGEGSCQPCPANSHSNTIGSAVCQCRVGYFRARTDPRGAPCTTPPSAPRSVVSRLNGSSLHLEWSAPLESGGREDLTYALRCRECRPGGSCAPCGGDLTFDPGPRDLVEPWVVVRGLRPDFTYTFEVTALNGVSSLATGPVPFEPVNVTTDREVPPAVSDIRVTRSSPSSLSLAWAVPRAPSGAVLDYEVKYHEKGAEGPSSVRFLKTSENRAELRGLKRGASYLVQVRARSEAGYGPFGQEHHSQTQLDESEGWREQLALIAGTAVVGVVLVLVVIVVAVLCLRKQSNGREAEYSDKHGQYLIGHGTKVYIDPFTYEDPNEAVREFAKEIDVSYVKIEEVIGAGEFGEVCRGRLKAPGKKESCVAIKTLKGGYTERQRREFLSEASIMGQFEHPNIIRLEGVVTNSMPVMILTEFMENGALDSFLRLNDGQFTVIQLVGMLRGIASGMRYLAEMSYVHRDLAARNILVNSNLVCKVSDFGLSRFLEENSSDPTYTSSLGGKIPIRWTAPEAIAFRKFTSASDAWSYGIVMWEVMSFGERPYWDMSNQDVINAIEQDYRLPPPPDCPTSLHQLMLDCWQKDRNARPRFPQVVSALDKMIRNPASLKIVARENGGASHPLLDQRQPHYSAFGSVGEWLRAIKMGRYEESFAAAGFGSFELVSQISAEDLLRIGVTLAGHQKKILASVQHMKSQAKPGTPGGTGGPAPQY
In short: as §1

[12] = target: T12, LRRK2 (Homo sapiens, UniProt Q5S007)
T12 construct: either as full-length or enzymatically active fragments; purchased ProQinase GmbH (Reaction Biology); host or cells: Sf9 insect cells or E. coli
In short: as §1

[13] = target: T13, PDGFRalpha (Homo sapiens, UniProt P16234)
T13 construct: either as full-length or enzymatically active fragments; purchased ProQinase GmbH (Reaction Biology)
In short: as §1

[14] = target: T14, TLK1 (Homo sapiens, UniProt Q9UKI8)
T14 construct: purchased ProQinase GmbH (Reaction Biology)
T14 sequence (Q9UKI8 whole entry): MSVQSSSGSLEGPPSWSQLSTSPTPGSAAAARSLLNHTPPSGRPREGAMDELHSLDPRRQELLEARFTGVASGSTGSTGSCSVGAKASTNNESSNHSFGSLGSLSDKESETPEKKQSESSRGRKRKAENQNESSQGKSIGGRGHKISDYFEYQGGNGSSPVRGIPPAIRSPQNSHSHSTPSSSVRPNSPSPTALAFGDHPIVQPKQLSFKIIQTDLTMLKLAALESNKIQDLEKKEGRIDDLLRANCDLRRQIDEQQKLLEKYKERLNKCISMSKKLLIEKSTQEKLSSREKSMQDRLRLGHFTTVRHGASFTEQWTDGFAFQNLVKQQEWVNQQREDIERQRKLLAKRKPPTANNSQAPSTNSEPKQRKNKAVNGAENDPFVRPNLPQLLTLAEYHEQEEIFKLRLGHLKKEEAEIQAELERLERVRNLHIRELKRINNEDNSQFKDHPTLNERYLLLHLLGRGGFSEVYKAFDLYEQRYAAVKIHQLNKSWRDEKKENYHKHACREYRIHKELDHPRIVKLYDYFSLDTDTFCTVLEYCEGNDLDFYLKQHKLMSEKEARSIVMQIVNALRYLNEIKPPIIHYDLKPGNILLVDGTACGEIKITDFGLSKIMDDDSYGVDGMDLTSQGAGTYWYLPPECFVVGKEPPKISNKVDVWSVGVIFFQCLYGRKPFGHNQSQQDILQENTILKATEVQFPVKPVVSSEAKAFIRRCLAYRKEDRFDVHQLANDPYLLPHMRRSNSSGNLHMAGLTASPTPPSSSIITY
In short: as §1

[15] = target: T15, ERBB4 (Homo sapiens, UniProt Q15303)
T15 construct: either as full-length or enzymatically active fragments; purchased ProQinase GmbH (Reaction Biology); host or cells: Sf9 insect cells or E. coli (not specified per kinase)
In short: as §1

[16] = target: T16, MYLK (Homo sapiens, UniProt Q15746)
T16 construct: either as full-length or enzymatically active fragments; purchased ProQinase GmbH (Reaction Biology)
In short: as §1

[17] = target: T17, TXK (Homo sapiens, UniProt P42681)
T17 construct: either as full-length or enzymatically active fragments; purchased ProQinase GmbH (Reaction Biology)
T17 sequence (P42681 whole entry, the tested form may be a part): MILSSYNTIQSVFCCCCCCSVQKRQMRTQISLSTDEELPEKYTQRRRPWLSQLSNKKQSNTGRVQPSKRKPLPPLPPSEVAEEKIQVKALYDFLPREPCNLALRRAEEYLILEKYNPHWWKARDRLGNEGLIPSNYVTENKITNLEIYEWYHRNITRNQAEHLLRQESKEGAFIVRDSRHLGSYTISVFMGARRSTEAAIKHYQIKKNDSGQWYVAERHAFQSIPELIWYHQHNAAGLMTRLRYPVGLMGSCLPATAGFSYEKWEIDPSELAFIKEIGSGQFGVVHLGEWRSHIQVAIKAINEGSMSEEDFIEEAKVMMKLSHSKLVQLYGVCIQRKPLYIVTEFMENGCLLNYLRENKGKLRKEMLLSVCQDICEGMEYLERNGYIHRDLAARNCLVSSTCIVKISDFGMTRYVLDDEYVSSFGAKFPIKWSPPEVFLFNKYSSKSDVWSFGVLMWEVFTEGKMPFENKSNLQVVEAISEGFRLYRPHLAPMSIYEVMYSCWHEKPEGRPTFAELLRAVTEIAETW
In short: as §1

[18] = target: T18, STK25 (Homo sapiens, UniProt O00506)
T18 construct: either as full-length or enzymatically active fragments; purchased ProQinase GmbH (Reaction Biology)
In short: as §1

[19] = target: T19, EPHA4 (Homo sapiens, UniProt P54764)
T19 construct: either as full-length or enzymatically active fragments; purchased ProQinase GmbH (Reaction Biology)
In short: as §1

[20] = target: T20, PRKX (Homo sapiens, UniProt P51817)
T20 construct: either as full-length or enzymatically active fragments; purchased ProQinase GmbH (Reaction Biology)
In short: as §1

[21] = target: T21, PAK2 (Homo sapiens, UniProt Q13177)
T21 construct: either as full-length or enzymatically active fragments; purchased ProQinase GmbH (Reaction Biology)
T21 sequence (Q13177 whole entry, the tested form may be a part): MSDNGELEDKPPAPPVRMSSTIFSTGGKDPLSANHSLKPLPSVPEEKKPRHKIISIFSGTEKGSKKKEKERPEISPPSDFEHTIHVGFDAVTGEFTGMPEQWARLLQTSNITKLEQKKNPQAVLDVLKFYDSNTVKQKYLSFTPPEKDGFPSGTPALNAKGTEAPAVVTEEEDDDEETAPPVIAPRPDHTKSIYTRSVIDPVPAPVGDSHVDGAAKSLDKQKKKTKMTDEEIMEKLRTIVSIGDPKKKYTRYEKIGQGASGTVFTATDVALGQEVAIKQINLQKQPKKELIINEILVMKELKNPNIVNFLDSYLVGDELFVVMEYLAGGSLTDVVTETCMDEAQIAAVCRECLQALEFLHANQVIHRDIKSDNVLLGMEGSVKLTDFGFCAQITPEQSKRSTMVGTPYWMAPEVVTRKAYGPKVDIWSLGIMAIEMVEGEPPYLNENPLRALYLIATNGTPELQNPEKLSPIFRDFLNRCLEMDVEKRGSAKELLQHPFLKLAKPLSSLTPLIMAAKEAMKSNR
In short: as §1

[22] = target: T22, SGK3 (Homo sapiens, UniProt Q96BR1)
T22 construct: either as full-length or enzymatically active fragments; purchased ProQinase GmbH (Reaction Biology)
In short: as §1

[23] = target: T23, TSF1 (Homo sapiens, UniProt O75716)
T23 construct: either as full-length or enzymatically active fragments; purchased ProQinase GmbH (Reaction Biology)
T23 sequence (O75716 whole entry, the tested form may be a part): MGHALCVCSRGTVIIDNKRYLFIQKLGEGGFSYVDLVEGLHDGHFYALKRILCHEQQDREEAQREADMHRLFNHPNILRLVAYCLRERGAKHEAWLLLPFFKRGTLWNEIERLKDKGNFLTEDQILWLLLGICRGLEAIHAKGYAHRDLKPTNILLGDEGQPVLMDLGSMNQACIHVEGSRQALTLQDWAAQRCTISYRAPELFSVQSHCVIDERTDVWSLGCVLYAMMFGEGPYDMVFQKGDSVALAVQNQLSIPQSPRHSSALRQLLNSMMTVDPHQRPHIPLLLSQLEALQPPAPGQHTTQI
In short: as §1

[24] = target: T24, FER (Homo sapiens, UniProt P16591)
T24 construct: either as full-length or enzymatically active fragments; purchased ProQinase GmbH (Reaction Biology); host or cells: Sf9 insect cells or E. coli
In short: as §1

[25] = target: T25, CDK17/p35NCK (Homo sapiens, UniProt Q00537)
T25 construct: either as full-length or enzymatically active fragments; purchased ProQinase GmbH (Reaction Biology); host or cells: Sf9 insect cells or E. coli
T25 sequence (Q00537 whole entry, the tested form may be a part): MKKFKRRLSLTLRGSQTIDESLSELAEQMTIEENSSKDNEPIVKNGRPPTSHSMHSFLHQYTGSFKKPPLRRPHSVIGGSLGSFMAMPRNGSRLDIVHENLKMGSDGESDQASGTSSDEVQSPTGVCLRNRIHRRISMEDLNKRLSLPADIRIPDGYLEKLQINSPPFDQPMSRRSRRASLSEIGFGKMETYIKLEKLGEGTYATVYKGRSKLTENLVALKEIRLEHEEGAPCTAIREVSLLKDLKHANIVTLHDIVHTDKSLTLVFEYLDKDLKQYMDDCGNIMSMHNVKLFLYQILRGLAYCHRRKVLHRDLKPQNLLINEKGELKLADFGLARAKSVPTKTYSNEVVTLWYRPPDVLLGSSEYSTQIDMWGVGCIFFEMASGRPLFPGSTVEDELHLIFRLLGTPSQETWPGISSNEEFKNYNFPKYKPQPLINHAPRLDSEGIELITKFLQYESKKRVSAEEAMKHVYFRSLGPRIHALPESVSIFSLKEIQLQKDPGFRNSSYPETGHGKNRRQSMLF
T25 sequence (Q15078 whole entry partner, the tested form may be a part): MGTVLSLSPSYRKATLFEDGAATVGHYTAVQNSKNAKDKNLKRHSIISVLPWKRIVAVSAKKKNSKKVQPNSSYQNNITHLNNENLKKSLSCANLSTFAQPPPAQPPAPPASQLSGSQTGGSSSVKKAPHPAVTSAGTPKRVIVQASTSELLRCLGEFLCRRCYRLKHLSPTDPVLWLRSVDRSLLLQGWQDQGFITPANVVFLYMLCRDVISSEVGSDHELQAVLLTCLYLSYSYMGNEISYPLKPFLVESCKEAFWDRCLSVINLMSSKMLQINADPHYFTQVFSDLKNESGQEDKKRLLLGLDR
In short: as §1

[26] = target: T26, CDC42BPB (Homo sapiens, UniProt Q9Y5S2)
T26 construct: either as full-length or enzymatically active fragments; purchased ProQinase GmbH (Reaction Biology)
In short: as §1

[27] = target: T27, SYK (Homo sapiens, UniProt P43405)
T27 construct: either as full-length or enzymatically active fragments; purchased ProQinase GmbH (Reaction Biology)
In short: as §1

[28] = target: T28, IRAK4 (Homo sapiens, UniProt Q9NWZ3)
T28 construct: purchased ProQinase GmbH (Reaction Biology)
In short: as §1

[29] = target: T29, YES (Homo sapiens, UniProt P07947)
T29 construct: either as full-length or enzymatically active fragments; purchased ProQinase GmbH (Reaction Biology)
T29 sequence (P07947 whole entry, the tested form may be a part): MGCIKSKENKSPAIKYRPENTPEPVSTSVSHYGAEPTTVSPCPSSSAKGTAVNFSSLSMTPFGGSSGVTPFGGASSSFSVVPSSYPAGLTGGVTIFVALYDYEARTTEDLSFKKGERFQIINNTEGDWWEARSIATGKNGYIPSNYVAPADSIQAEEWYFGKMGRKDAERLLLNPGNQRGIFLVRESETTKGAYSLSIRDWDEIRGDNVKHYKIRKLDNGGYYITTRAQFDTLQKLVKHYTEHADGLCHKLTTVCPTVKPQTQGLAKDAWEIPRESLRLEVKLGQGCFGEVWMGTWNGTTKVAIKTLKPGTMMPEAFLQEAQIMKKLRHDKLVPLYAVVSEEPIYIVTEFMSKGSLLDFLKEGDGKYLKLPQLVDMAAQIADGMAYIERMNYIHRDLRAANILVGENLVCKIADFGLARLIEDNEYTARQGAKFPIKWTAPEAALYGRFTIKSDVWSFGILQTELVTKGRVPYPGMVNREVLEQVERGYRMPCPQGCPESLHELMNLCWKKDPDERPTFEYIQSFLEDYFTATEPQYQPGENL
In short: as §1

[30] = target: T30, STK23 (Homo sapiens, UniProt Q9UPE1)
T30 construct: either as full-length or enzymatically active fragments; purchased ProQinase GmbH (Reaction Biology)
In short: as §1

[31] = target: T31, JAK2 (Homo sapiens, UniProt O60674)
T31 construct: either as full-length or enzymatically active fragments; purchased ProQinase GmbH (Reaction Biology)
In short: as §1

C=CC(=O)Nc1ccc(C(=O)N2CC[C@@H](Nc3ncc(C#N)cn3)C2)cc1 [Compound 4, (R)-N-(4-(3-((5-cyanopyrimidin-2-yl)amino)pyrrolidine-1-carbonyl)phenyl)acrylamide]
inhibition at 1 µM [1]: 1%
inhibition at 1 µM [2]: 0%
inhibition at 1 µM [3]: -3%
inhibition at 1 µM [4]: 1%
inhibition at 1 µM [5]: 11%
inhibition at 1 µM [6]: 1%
inhibition at 1 µM [7]: 3%
inhibition at 1 µM [8]: 15%
inhibition at 1 µM [9]: 3%
inhibition at 1 µM [10]: -5%
inhibition at 1 µM [11]: -4%
inhibition at 1 µM [12]: -14%
inhibition at 1 µM [13]: 7%
inhibition at 1 µM [14]: -1%
inhibition at 1 µM [15]: 9%
inhibition at 1 µM [16]: 3%
inhibition at 1 µM [17]: 6%
inhibition at 1 µM [18]: 7%
inhibition at 1 µM [19]: 2%
inhibition at 1 µM [20]: -7%
inhibition at 1 µM [21]: 16%
inhibition at 1 µM [22]: 5%
inhibition at 1 µM [23]: 6%
inhibition at 1 µM [24]: 15%
inhibition at 1 µM [25]: 12%
inhibition at 1 µM [26]: 7%
inhibition at 1 µM [27]: 2%
inhibition at 1 µM [28]: 0%
inhibition at 1 µM [29]: -5%
inhibition at 1 µM [30]: 7%
inhibition at 1 µM [31]: -6%

Source: patent publication US20230074545A1, “TREATMENT OF CANCER WITH CDK12/13 INHIBITORS” (Kinnate Biopharma Inc., priority 2019, published 2023)
